According to patent publication US11261192B2, “Substituted 1,2-dihydro-3H-pyrazolo[3,4-D]pyrimidin-3-ones” (Recurium IP Holdings, LLC, priority 2018, dated 2022):
Like-named read-outs stand apart in the source and are kept apart here.

Key:
Wee1 kinase = Wee1 kinase (Homo sapiens, UniProt P30291); assay: Wee1 Binding Assay (FRET)
Method: Wee 1 kinase was determined by using Fluorescence Resonance Energy Transfer (FRET) assay. […] The plate was shaken for 30 seconds, incubated for 60 min at RT, and recorded on fluorescence plate reader.

H23 cells = assay: H23 Cellular Proliferation Assay (CellTiter-Glo); assay type: cell-based; conditions: Homo sapiens, NCI-H23, 96 h, 4 days, read-out: H23 CTG IC50
Method: H23 Cellular Proliferation Assay
Cells were treated with compounds diluted in DMSO and a 9 point 5-fold serial dilutions. Plates were placed in 37° C., 5% CO2 for to incubate for 4 days. Before they were developed by adding 100 μL of CellTiter-Glo reagent (Promega) to the assay plate, plates were shaken briefly for 2 mins and allowed to incubate at rt for 10 mins. The plates are read with a M5e plate reader according to CellTiter-Glo protocol. The GraphPad Prism software is used to get IC50 values.

[1] = FRET, Wee1 kinase 2 nM, tracer 178 50 nM, 60 min at RT, read-out: Wee1 enzymatic IC50

Sequence of Wee1 kinase (P30291 whole entry): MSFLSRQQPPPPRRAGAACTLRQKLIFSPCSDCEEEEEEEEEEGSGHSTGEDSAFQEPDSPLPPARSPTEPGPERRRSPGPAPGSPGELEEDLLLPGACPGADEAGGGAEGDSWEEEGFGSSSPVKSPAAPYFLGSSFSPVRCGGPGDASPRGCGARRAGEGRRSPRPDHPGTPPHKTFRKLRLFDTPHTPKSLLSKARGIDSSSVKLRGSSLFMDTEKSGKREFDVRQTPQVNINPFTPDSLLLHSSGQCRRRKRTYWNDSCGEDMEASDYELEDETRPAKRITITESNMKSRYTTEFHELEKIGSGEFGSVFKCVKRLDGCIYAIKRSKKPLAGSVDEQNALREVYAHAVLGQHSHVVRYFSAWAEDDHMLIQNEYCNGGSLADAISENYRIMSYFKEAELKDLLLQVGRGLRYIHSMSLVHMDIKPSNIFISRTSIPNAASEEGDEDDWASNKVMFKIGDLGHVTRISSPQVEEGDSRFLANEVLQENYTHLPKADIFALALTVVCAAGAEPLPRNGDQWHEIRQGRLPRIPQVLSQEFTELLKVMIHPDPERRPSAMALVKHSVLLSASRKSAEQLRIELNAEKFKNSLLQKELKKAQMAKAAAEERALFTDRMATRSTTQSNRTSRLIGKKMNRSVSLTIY

| SMILES | IC50 (Wee1 kinase; [1]) [nM] | IC50 (H23 cells) [nM] | IC50 (Wee1 kinase) [nM] |
| --- | --- | --- | --- |
| C=CCn1c(=O)c2cnc(Nc3ccc(N4CCN(C)CC4)c(C)c3)nc2n1-c1ccc2c(n1)[C@@](C)(O)CCC2 (single isomer, unassigned) [Example 27A] | < 10 | 100 to 1000 | – |
| C=CCn1c(=O)c2cnc(Nc3ccc(N4CCN(C)CC4)c(C)c3)nc2n1-c1ccc2c(n1)[C@](C)(O)CCC2 (single isomer, unassigned) [Example 27B] | < 10 | 100 to 1000 | – |
| C=CCn1c(=O)c2cnc(Nc3ccc4c(c3)CNCC43CC3)nc2n1-c1ccc2c(n1)[C@](O)(C(F)(F)F)CC2 (single isomer, unassigned) [Example 30A] | – | 100 to 1000 | < 10 |
| C=CCn1c(=O)c2cnc(Nc3ccc4c(c3)CNCC43CC3)nc2n1-c1ccc2c(n1)[C@@](O)(C(F)(F)F)CC2 (single isomer, unassigned) [Example 30B] | – | 100 to 1000 | < 10 |
| C=CCn1c(=O)c2cnc(Nc3ccc(N4CCN(C)CC4)cc3)nc2n1-c1cnc2c(c1)[C@@](C)(O)CO2 (single isomer, unassigned) [Example 35A, 2-allyl-1-(3-hydroxy-3-methyl-2,3-dihydrofuro[2,3-b]pyridin-5-yl)-6-((4-(4-methylpiperazin-1-yl)phenyl)amino)-1,2-dihydro-3H-pyrazolo[3,4-d]pyrimidin-3-one] | 10 to 100 | > 1000 | – |
| C=CCn1c(=O)c2cnc(Nc3ccc(N4CCN(C)CC4)cc3)nc2n1-c1cnc2c(c1)[C@](C)(O)CO2 (single isomer, unassigned) [Example 35B] | 10 to 100 | > 1000 | – |
| C=CCn1c(=O)c2cnc(Nc3ccc(N4CCN(C)CC4)cc3)nc2n1-c1cn2c(n1)[C@@](C)(O)CC2 (single isomer, unassigned) [Example 36A] | 10 to 100 | > 1000 | – |
| C=CCn1c(=O)c2cnc(Nc3ccc(N4CCN(C)CC4)cc3)nc2n1-c1cn2c(n1)[C@](C)(O)CC2 (single isomer, unassigned) [Example 36B] | > 100 | > 1000 | – |
| C=CCn1c(=O)c2cnc(Nc3ccc(N4CCNCC4)cc3)nc2n1-c1ccc2c(n1)C(F)(F)CC2 [Example 7, 2-Allyl-1-(7,7-difluoro-6,7-dihydro-5H-cyclopenta[b]pyridin-2-yl)-6-((4-(piperazin-1-yl)phenyl)amino)-1,2-dihydro-3H-pyrazolo[3,4-d]pyrimidin-3-one] | < 10 | > 1000 | – |
| C=CCn1c(=O)c2cnc(Nc3ccc(N4CCN(C)CC4)cc3)nc2n1-c1ccc2c(n1)C(F)(F)CC2 [Example 8, 2-Allyl-1-(7,7-difluoro-6,7-dihydro-5H-cyclopenta[b]pyridin-2-yl)-6-((4-(4-methylpiperazin-1-yl)phenyl)amino)-1,2-dihydro-3H-pyrazolo[3,4-d]pyrimidin-3-one] | – | 100 to 1000 | < 10 |
| C=CCn1c(=O)c2cnc(Nc3ccc(N4CCN(C)CC4)cc3)nc2n1-c1cn2c(n1)COCC2 [Example 32, 2-allyl-1-(5,6-dihydro-8H-imidazo[2,1-c][1,4]oxazin-2-yl)-6-((4-(4-methylpiperazin-1-yl)phenyl)amino)-1,2-dihydro-3H-pyrazolo[3,4-d]pyrimidin-3-one] | 10 to 100 | > 1000 | – |
| C=CCn1c(=O)c2cnc(Nc3ccc(N4CCN(C)CC4)cc3)nc2n1-c1ccc2c(n1)C(=O)N(C)C2 [Example 33, 2-allyl-1-(6-methyl-7-oxo-6,7-dihydro-5H-pyrrolo[3,4-b]pyridin-2-yl)-6-((4-(4-methylpiperazin-1-yl)phenyl)amino)-1,2-dihydro-3H-pyrazolo[3,4-d]pyrimidin-3-one] | 10 to 100 | > 1000 | – |
